How the values were obtained:
[1] = system: IL-1-induced uveitis; assay: IL-1-induced uveitis in rat eyes; assay type: in vivo; conditions: earlier experiments of the applicant's laboratory
[2] = system: experimentally-induced ocular inflammation; assay: Vascular permeability in experimentally-induced ocular inflammation; assay type: in vivo; conditions: earlier experiments of the applicant's laboratory

With `COc1ccc2ccc(=O)oc2c1CC=C(C)C` [Osthole] the IL-1-induced uveitis [1] was “inhibit IL-1-induced uveitis” and the vascular permeability [2] was “showed efficacy to reduce vascular permeability”.

Reference: patent US11045435B2, “Methods for treating ocular diseases” (NATUREWISE BIOTECH & MEDICALS CORPORATION, priority 2016, dated 2021)
